Measured values reported in the NIST ThermoML archive (doi:10.1021/je301220s).
± gives the expanded uncertainty stated by the source.

Conditions: Liquid; for mass density: 298.15 K, 101.33 kPa, Vibrating tube method

| Compound | mass density | Normal boiling temperature |
| --- | --- | --- |
| CCc1ccccc1 [ethylbenzene] | 862.57 ± 0.16 kg/m3 | 136.16 ± 0.5 °C |
| Cc1ccccc1C [1,2-dimethylbenzene] | 875.81 ± 0.16 kg/m3 | 144.40 ± 0.5 °C |
| Cc1cccc(C)c1 [1,3-dimethylbenzene] | 860.06 ± 0.16 kg/m3 | 139.13 ± 0.5 °C |
| CCC(C)CO (stereo not given) [2-methyl-1-butanol] | 814.83 ± 0.17 kg/m3 | 128.76 ± 0.5 °C |
| Cc1ccc(C)cc1 [1,4-dimethylbenzene] | 856.54 ± 0.16 kg/m3 | 138.28 ± 0.5 °C |
